US8293749B2, “Injectable meclizine formulations and methods” (Genebiology, Inc., priority 2007, dated 2012)
Converted amounts (≈) assume the structure as drawn.

Tests used:
physchem [1] = details: 25 °C, pH 4, aqueous buffer, thermodynamic from solid, aqueous solubility of meclizine at pH 4.0
Procedure: (§1) Five HPBCD and five SBECD solutions in 0.5 M citric acid buffer (pH of 4.0) are prepared, with HPBCD and SBECD concentrations of 0; 50; 100; 150 and 200 mg/ml. 3 ml of the various buffered HPBCD and SBECD solutions are placed in 4 ml vials. 50-100 mg meclizine is added to each vial, such that excess meclizine is available. The vials are sealed and are shaken on an orbital shaker for 24 hours at 200 rpm and 25° C. Following the shaking, the vials are filtered through 0.45 μm filters to remove any excess solute. The remaining solution is assayed by HPLC for meclizine content.

nausea and vomiting = details: anti-emetic; cited from earlier work
physchem [2] = details: 25 °C, pH 3, aqueous buffer, thermodynamic from solid, aqueous solubility of meclizine at pH 3.0
Procedure: as §1, with “3.0)” for “4.0)”, “of” for “of 0;”, “75-100” for “50-100”, “provided.” for “available.”

[3] = pH-dependent solubility of meclizine cyclodextrin complexes in 0.5 M citric buffer; assay type: physicochemical; details: HPBCD 200 mg/ml, above pH of about 5, compared with non-chemically modified CDs
[4] = Solubility of meclizine with cyclodextrins in ddH2O, HPLC; assay type: physicochemical; details: alpha-CD 0-100 mg/ml, gamma-CD, HPBCD and SBECD at 200 mg/ml versus no CD
Procedure: FIG. 1A depicts solubility data of meclizine complexed with non-chemically modified cyclodextrins (α-CD at 0-100 mg/ml, γ-CD at 200 mg/ml), chemically modified cyclodextrins (HPBCD and SBECD) at 200 mg/ml, and with no CD complexation in ddH2O. Solutions were prepared by adding excess meclizine to ddH2O samples with varying quantities of the different cyclodextrins. These samples were shaken for 24 hours at 200 rpm. Following the shaking, the vial contents were filtered through 0.45 μm filters to remove any excess solute. The remaining solution was assayed by HPLC for meclizine content.

[5] = Aqueous solubility of meclizine versus pH, 0.1 M citric acid buffer and ddH2O, HPLC; assay type: physicochemical; details: for solubility at 24 h: thermodynamic from solid
Procedure: Citric acid (0.1M) buffer solutions are prepared with pH's of 1.0; 2.0; 3.0; 4.0, and 5.0 in ddH2O (de-oxygenated water by purging with nitrogen gas). 2 ml of each buffer are placed in 4 ml vials and 2 ml ddH2O is placed in a 4 ml vial. 20 mg meclizine HCl is added to each vial. The vials are sealed and are shaken on an orbital shaker for 24 hours at 200 rpm. Following the shaking, the vial contents are filtered through 0.45 μm filters to remove any excess solute. The remaining solution is assayed by HPLC for meclizine content.

[6] = Merck Index, 12th Ed, 984; cited from earlier work

Structure (SMILES) | solubility at 24 h (physchem [1]) [µg/mL] | duration of action (nausea and vomiting) | solubility at 24 h (physchem [2]) [µg/mL] | solubility of meclizine in HPBCD at higher pH [3] | solubility of meclizine with cyclodextrins [4] | aqueous solubility of meclizine ([5]; 0.1 M citric acid buffer, about pH 5.0, shaken 24 hours) | solubility at 24 h ([5]; aqueous buffer, 0.1 M citric acid buffer, pH 1.0, shaken 24 hours, read-out: aqueous solubility of meclizine) [µg/mL] | solubility at 24 h ([5]; ddH2O (de-oxygenated water), pH 2, water, ddH2O, measured pH of about 2.0, shaken 24 hours, read-out: aqueous solubility of meclizine in ddH2O) [µg/mL] | water solubility [6] [g/100 ml]
Cc1cccc(CN2CCN(C(c3ccccc3)c3ccc(Cl)cc3)CC2)c1 (stereo not shown) [meclizine, 1-(4-chlorobenzhydryl)-4-(3-methylbenzyl)-piperazine] | ~10 (≈ 25.6 µM) | up to 24 hours | ~300 (≈ 767 µM) | improved solubility | improved solubility | below the limit of detection | ~1500 (≈ 3840 µM) | ~3800 (≈ 9720 µM) | 
CN1CCN(C(c2ccccc2)c2ccccc2)CC1 [cyclizine] |  | 1 to 2 h |  |  |  |  |  |  | 
Cc1cccc(CN2CCN(C(c3ccccc3)c3ccc(Cl)cc3)CC2)c1.Cl.Cl (stereo not shown) [meclizine HCl, 1-(4-chlorobenzhydryl)-4-(3-methylbenzyl)-piperazine dihydrochloride] |  |  |  |  |  |  |  |  | 0.1
